Non-standard residues stand in square brackets, D forms with d. Residues, ends and D or L forms follow the SMILES beside them. Nle = CCCC[C@H](N)C(=O)O
Each compound was assayed on INS1 cells (assay: Mitochondrial content / cellular mitochondrial mass by imaging). Conditions: INS1 cell line; 8 hours, 24 hours, and 72 hours; three concentrations; FIG. 9; normalized to DMSO.
Assay type: cell-based
Method: Cells were cultured on coverslips inside a Petri dish filled with the appropriate culture medium or grown directly into a four-chamber glass bottom dish and cells were subsequently imaged on the LSM880. At least 30 cells per condition per experiment were collected, at least three separate experiments were performed for imaging clonal cells. Image analysis was performed in the CellProfiler™ software (cellprofiler.org) to measure mitophagic events. Individual mitochondrial fluorescence intensity and area were measured in CellProfiler™ and imported into Microsoft Excel®. Mitochondria smaller than 2 pixels in area were not included in final analyses. Images were subjected to top hat filtering followed by global threshold Otsu method to segment mitochondria. To assess amount of mitochondrial content, green fluorescence intensity of objects identified as mitochondrial structures were quantitated. Data has been normalized to the control treatment, dimethyl sulfoxide (DMSO).

How did the “cellular mitochondrial mass (mitochondrial content)” value (shortened to “cellular mitochondrial mass”) turn out when `CCCCOC(=O)NS(=O)(=O)c1ccc(OC(F)(F)F)cc1-c1ccc(Cn2ccnc2)cn1` [Compound 7] was run?
Its value is “stable”.

`CCCC[C@H](NC(=O)[C@H](CCCNC(=N)N)NC(=O)[C@@H](N)CC(=O)O)C(=O)N[C@@H](Cc1ccc(O)cc1)C(=O)N[C@H](C(=O)N[C@@H](Cc1c[nH]cn1)C(=O)N1CCC[C@H]1C(=O)O)[C@@H](C)CC` [Nle^3-A(1-7), Asp-Arg-Nle-Tyr-Ile-His-Pro] (H-DR[Nle]YIHP-OH) was tested. Which “cellular mitochondrial mass” value did it give?
The value was “stable”.

Which “cellular mitochondrial mass” value does the source give for `CC[C@H](C)[C@H](NC(=O)[C@H](Cc1ccc(O)cc1)NC(=O)[C@@H](NC(=O)[C@H](CCCNC(=N)N)NC(=O)[C@@H](N)CC(=O)O)C(C)C)C(=O)N[C@@H](Cc1c[nH]cn1)C(=O)N1CCC[C@H]1C(=O)O` [angiotensin(1-7), H-Asp-Arg-Val-Tyr-Ile-His-Pro-OH] here?
The value was “stable”.

Reference: patent US12343331B2, “Methods and agents that stimulate mitochondrial turnover for treating disease” (Capacity Bio, Inc., priority 2021, dated 2025)
